For this series, the system named is mTOR. The experiment in a line: mTOR expression at RNA level in iFECD (PCR, agarose gel electrophoresis). The conditions noted are these: 3 pmol mTOR siRNA, FIG. 6. The series is classed as cell-based, human. How it is done: The medium was removed from a culture dish in which iFECDs were being cultured, and the cells were supplemented with 1×PBS (−) that was preheated to 37° C., and were washed. This was repeated twice. The cells were supplemented again with 1×PBS (−) and incubated for 3 minutes at 37° C. (5% CO2). After removing the PBS (−), the cells were supplemented with 0.05% Trypsin-EDTA (Nacalai Tesque, 32778-34) and incubated for 5 minutes at 37° C. (5% CO2). The cells were then suspended in a medium, and collected by centrifugation at 1500 rpm for 3 minutes. DMEM (Nacalai Tesque, 08456-36)+10% FBS (Biowest, S1820-500)+1% P/S (Nacalai Tesque, 26252-94) was used as the medium.
iFECDs were seeded on a 12-well plate at a ratio of 3×10^4 cells per well and cultured for 24 hours at 37° C. (5% CO2) (medium: DMEM+10% FBS+1% P/S). After 24 hours, the medium was removed. Lipofectamine (invitrogen, 92008) and 3 pmol of mTOR siRNA (Ambion, AS026M0L) were added to culture the cells for 24 hours (medium: OptiMEM-I (invitrogen, 31985-088)). The mTOR siRNA that was used has a sense strand set forth in SEQ ID NO: 1 and an antisense strand set forth in SEQ ID NO: 2. After 24 hours, the medium was removed to culture the cells for 72 hours at 37° C. (5% CO2) (medium: DMEM+10% FBS+1% P/S). After 72 hours, the medium was removed. […]

In the case of “mTOR siRNA: siRNA against mTOR gene (Ambion, AS026M0L); sense strand SEQ ID NO: 1, antisense strand SEQ ID NO: 2 (sense CAUUCGCAUUCAGUCCAUATT; antisense UAUGGACUGAAUGCGAAUGAT; chemistry not given here)”, the “mTOR expression, RNA level (PCR)” value was “suppression was found”.

These data come from US11433090B2, “mTOR-inhibitor-containing medicine for treating or preventing ophthalmic symptoms, disorders, or diseases, and application thereof” (The Doshisha, priority 2017, dated 2022).
